Measurements from patent publication US20240189440A1, “TLR7 AND TLR8 AGONISTS FOR THE TREATMENT OF CANCER AND/OR INFECTIOUS DISEASES” (priority 2021, published 2024).
Read-outs that look alike come from different tables or passages of the source.

Legend:
[1] = test system: HBV infected primary human hepatocytes; details: Tsai et al. 2017, Bam et al. 2016; cited from earlier work
[2] = patients with mild allergic asthma; Tsitoura et al. 2015; cited from earlier work
[3] = test system: NFκB pathway in Ramos-blue cells; assay: Ramos-Blue NFκB/SEAP reporter assay with cysteine-capped linker-payloads, 72 h (Example 15); format: cell-based; details: read-out: Relative Activation
Method: A 50 mM cysteine stock was prepared in 0.1 M PBS pH 7.4. 10 equivalents of 50 mM cysteine were added to 1 equivalent of linker-payload to create a 2.50 mM solution. The reaction was vortexed and sat at room temperature for an hour to allow for the Michael addition to occur. After an hour, an aliquot was taken and run via UPLC-MS to ensure for the complete Michael reaction. The reaction was diluted to 1 mM using 0.1M PBS pH 7.4. The 1 mM solution was diluted to 500 uM and 50 uM in a 96-well plate to afford a final concentration of 50 uM and 5 uM in the cell suspension. The cell density and viability were calculated using the Countess Cell Counter and the proper volume of cells was removed in order to have a seeding density of 0.2×10^6 cells/mL per well. 135 uL of cell suspension was added to each well in a 96-well plate along with 15 uL of the corresponding linker-payload treatment. Each concentration was run in triplicate and incubated at 37° C. with 5% CO2 for 72 hours.
Invivogen's QUANTI-Blue™ solution was prepared by adding 200 uL of QB reagent and 200 uL of QB buffer to 19.6 mL of water. The resulting solution was vortexed and incubated at room temperature for ten minutes. The 96-well plate was centrifuged at 1990 rpm for ten minutes. Then, 40 uL of cell supernatant was added to 160 uL of the prepared QUANTI-Blue™ solution and incubated at 37° C. for 24 hours. The plate was read using the Molecular Devices i3x plate reader at a wavelength of 630 nm to determine the amount of SEAP production.

[4] = test system: hepatitis C virus; details: treatment of hepatitis C virus; Fidock et al. 2011; cited from earlier work
[5] = Linker-Payload Dose 5 uM, cysteine-capped, 72 hours, SEAP at 630 nm
[6] = Linker-Payload Dose 50 uM, cysteine-capped, 72 hours, SEAP at 630 nm

Structure (SMILES) | activation at 5 µM [3, 5] | activation at 50 µM [3, 6] | further results
CCCCOc1nc(N)c2c(n1)N(Cc1cccc(CN3CCCC3)c1)CC(=O)N2 [GS-9620] |  |  | Antiviral activity [1]: no antiviral activity
CCC[C@H](C)Oc1nc(N)c2[nH]c(=O)n(CCCCCN3CCCCC3)c2n1 [GSK-2245035] |  |  | Efficacy on allergen-induced asthmatic response [2]: lack efficacy
CCOCc1nc2c(NC(=O)OCc3ccc(NC(=O)C(CCCNC(N)=O)NC(=O)C(NC(=O)CCCCCN4C(=O)C=CC4=O)C(C)C)cc3)nc3ccccc3c2n1CC(C)(C)O (centres unmarked) [Mc_ValCitPABC_Resiquimod, 4-(2-(2-(6-(2,5-Dioxo-2,5-dihydro-1H-pyrrol-1-yl)hexanamido)-3-methylbutanamido)-5-ureidopentanamido)benzyl 2-(ethoxymethyl)-1-(2-hydroxy-2-methylpropyl)-1H-imidazo[4,5-c]quinolin-4-ylcarbamate] | 18.6% | -20.8% | 
CCCCc1nc2c(N)nc3ccccc3c2n1Cc1ccc(CNC(=O)C(CCCNC(N)=O)NC(=O)C(NC(=O)CCCCCN2C(=O)C=CC2=O)C(C)C)cc1 (centres unmarked) [Mc_ValCit_E66, N-(1-(1-(4-((4-amino-2-butyl-1H-imidazo[4,5-c]quinolin-1-yl)methyl)benzylamino)-1-oxo-5-ureidopentan-2-ylamino)-3-methyl-1-oxobutan-2-yl)-6-(2,5-dioxo-2,5-dihydro-1H-pyrrol-1-yl)hexanamide] | 125% | -51.4% | 
CCCCc1nc2c(N)nc3ccccc3c2n1Cc1ccc(NC(=O)C(CCCNC(N)=O)NC(=O)C(NC(=O)CCCCCN2C(=O)C=CC2=O)C(C)C)cc1 (centres unmarked) [Mc_ValCit_E104, N-(1-(1-(4-((4-amino-2-butyl-1H-imidazo[4,5-c]quinolin-1-yl)methyl)phenylamino)-1-oxo-5-ureidopentan-2-ylamino)-3-methyl-1-oxobutan-2-yl)-6-(2,5-dioxo-2,5-dihydro-1H-pyrrol-1-yl)hexanamide] | 238% | -50.9% | 
CCOCc1cc2c(NC(=O)C(CCCNC(N)=O)NC(=O)C(NC(=O)CCCCCN3C(=O)C=CC3=O)C(C)C)nc3ccccc3c2n1CC(C)(C)O (centres unmarked) [Mc_ValCit_Resiquimod, 6-(2,5-Dioxo-2,5-dihydro-1H-pyrrol-1-yl)-N-(1-(1-(2-(ethoxymethyl)-1-(2-hydroxy-2-methylpropyl)-1H-pyrrolo[3,2-c]quinolin-4-ylamino)-1-oxo-5-ureidopentan-2-ylamino)-3-methyl-1-oxobutan-2-yl)hexanamide] |  |  | activation at 5 µM ([3]; 72 h): 11.4%; activation at 50 µM ([3]; 72 h): -23.1%
CCc1nc2c(N)nc3ccccc3c2n1CCCCNS(C)(=O)=O [PF-4878691] |  |  | Therapeutic index [4]: low therapeutic index
